Experimental data: PubChem BioAssay AID328 (DTP/NCI, 2004)
Values joined by “and” are separate entries in the source; they are usually repeats but may differ in a detail not shown here. Equal values may be shown once. Inconclusive results and toxic doses are left out. Rule for the calls: active = survival T/C of 150% or more; inactive = T/C below 125% in these data.

System: BDF1 mice, P388 leukemia ip, median survival T/C
Experiment: NCI In Vivo Anticancer Drug Screen. Data for tumor model P388 Leukemia (intraperitoneal) in B6D2F1 (BDF1) mice
Conditions: endpoint: median survival time, higher = longer survival
How it was run: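 Transplantable tumour in mice; compound vs vehicle dosing; survival scored; ratio of treated to control reported.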

[1] = dose: 25.0 mg/kg/injection, schedule: Q01DX009 (ip), vehicle: saline
[2] = dose: 50.0 mg/kg/injection, schedule: Q01DX009 (ip), vehicle: saline
[3] = dose: 100.0 mg/kg/injection, schedule: Q01DX009 (ip), vehicle: saline
[4] = dose: 100.0 mg/kg/injection, schedule: Q04DX003 (ip), vehicle: saline
[5] = dose: 12.5 mg/kg/injection, schedule: Q01DX009 (ip), vehicle: water
[6] = dose: 25.0 mg/kg/injection, schedule: Q01DX009 (ip), vehicle: water
[7] = dose: 25.0 mg/kg/injection, schedule: Q04DX003 (ip), vehicle: water
[8] = dose: 50.0 mg/kg/injection, schedule: Q01DX009 (ip), vehicle: water
[9] = dose: 50.0 mg/kg/injection, schedule: Q04DX003 (ip), vehicle: water
[10] = dose: 100.0 mg/kg/injection, schedule: Q01DX009 (ip), vehicle: water
[11] = dose: 200.0 mg/kg/injection, schedule: Q04DX003 (ip), vehicle: saline
[12] = dose: 100.0 mg/kg/injection, schedule: Q01DX009 (ip), vehicle: Klucel (hydroxypropylcellulose) (HPC)
[13] = dose: 100.0 mg/kg/injection, schedule: Q04DX003 (ip), vehicle: Klucel (hydroxypropylcellulose) (HPC)
[14] = dose: 200.0 mg/kg/injection, schedule: Q04DX003 (ip), vehicle: Klucel (hydroxypropylcellulose) (HPC)
[15] = dose: 400.0 mg/kg/injection, schedule: Q01DX009 (ip), vehicle: Klucel (hydroxypropylcellulose) (HPC)
[16] = dose: 400.0 mg/kg/injection, schedule: Q04DX003 (ip), vehicle: Klucel (hydroxypropylcellulose) (HPC)
[17] = dose: 25.0 mg/kg/injection, schedule: Q04DX003 (ip), vehicle: Klucel (hydroxypropylcellulose) (HPC)
[18] = dose: 50.0 mg/kg/injection, schedule: Q04DX003 (ip), vehicle: Klucel (hydroxypropylcellulose) (HPC)

Measured: T/C

CCOC(=O)C(C(=O)OCC)C1c2ccccc2C(=O)N(CCN(C)C)c2ccccc21 (centres undefined)
inactive: [1] 109 % of control | [2] 95 % of control | dose: 50.0 mg/kg/injection, schedule: Q04DX003 (ip), vehicle: saline 91 % of control | [3] 104 % of control | [4] 87 % of control

COc1ccc(C2=CC(c3ccc(OC)c(OC)c3)c3c(c4ccccc4oc3=O)O2)cc1OC (centres undefined)
inactive: [5] 98 % of control | [6] 100 % of control | [7] 97 % of control | [8] 97 % of control | [9] 94 % of control | [10] 96 % of control and 97 % of control | dose: 200.0 mg/kg/injection, schedule: Q04DX003 (ip), vehicle: water 97 % of control | dose: 400.0 mg/kg/injection, schedule: Q01DX009 (ip), vehicle: water 106 % of control | dose: 400.0 mg/kg/injection, schedule: Q04DX003 (ip), vehicle: water 97 % of control

CN(c1ccccc1)c1cc2c(cc1[N+](=O)[O-])no[n+]2[O-]
inactive: dose: 15.0 mg/kg/injection, schedule: Q01DX009 (ip), vehicle: saline with Tween-80 118 % of control | dose: 60.0 mg/kg/injection, schedule: Q01DX009 (ip), vehicle: saline with Tween-80 113 % of control

CCOC(=O)C1CC1C(=O)O (centres undefined)
inactive: [4] 103 % of control | [11] 114 % of control

Nc1ccc(S(=O)(=O)Nc2ccc(I)cc2)cc1
inactive: [12] 90 % of control | [13] 123 % of control | dose: 200.0 mg/kg/injection, schedule: Q01DX009 (ip), vehicle: Klucel (hydroxypropylcellulose) (HPC) 104 % of control | [14] 96 % of control | [15] 100 % of control | [16] 92 % of control

C[C@]12CCC(=O)C[C@@H]1CC[C@@H]1[C@@H]2CC[C@]2(C)[C@@H](OC(=O)N(CCCl)N=O)CC[C@@H]12
inactive: [3] 100 % of control

Nc1nc(-c2ccccc2)ns1
inactive: dose: 25.0 mg/kg/injection, schedule: Q01DX009 (ip), vehicle: saline sonified 100 % of control | dose: 50.0 mg/kg/injection, schedule: Q01DX009 (ip), vehicle: saline sonified 100 % of control

CCC1CC2CN(CCc3c([nH]c4ccccc34)C(C(=O)OC)(c3cc4c(cc3OC)N(C)C3C(O)(C(=O)OC)C(OC(C)=O)C5(CC)C=CCN6CCC43C65)C2)C1 (centres undefined)
inactive: dose: 0.06 mg/kg/injection, schedule: Q01DX009 (ip), vehicle: water 90 % of control | dose: 0.12 mg/kg/injection, schedule: Q01DX009 (ip), vehicle: water 90 % of control and 100 % of control | dose: 0.25 mg/kg/injection, schedule: Q01DX009 (ip), vehicle: water 95 % of control and 100 % of control | dose: 0.5 mg/kg/injection, schedule: Q01DX009 (ip), vehicle: water 90 % of control and 100 % of control | dose: 1.0 mg/kg/injection, schedule: Q01DX009 (ip), vehicle: water 90 % of control and 95 % of control and 100 % of control | dose: 2.0 mg/kg/injection, schedule: Q01DX009 (ip), vehicle: water 90 % of control and 95 % of control | dose: 4.0 mg/kg/injection, schedule: Q01DX009 (ip), vehicle: water 100 % of control | dose: 8.0 mg/kg/injection, schedule: Q01DX009 (ip), vehicle: water 100 % of control and 90 % of control

Oc1ccc(O)cc1
inactive: [17] 106 % of control | [2] 112 % of control | [18] 110 % of control | dose: 66.0 mg/kg/injection, schedule: Q01DX009 (ip), vehicle: saline 100 % of control | [13] 112 % of control

Nc1ccccc1C(=O)OCCc1ccccc1
inactive: [12] 100 % of control | [13] 95 % of control | [14] 91 % of control | dose: 266.0 mg/kg/injection, schedule: Q01DX009 (ip), vehicle: Klucel (hydroxypropylcellulose) (HPC) 94 % of control | [15] 110 % of control | [16] 95 % of control | dose: 600.0 mg/kg/injection, schedule: Q01DX009 (ip), vehicle: Klucel (hydroxypropylcellulose) (HPC) 100 % of control

CCOC(=O)C(Cc1ccc(N(CCCl)CCCl)cc1)NP1(=O)NCCCO1 (centres undefined)
active: dose: 6.25 mg/kg/injection, schedule: Q01DX009 (ip), vehicle: Klucel (hydroxypropylcellulose) (HPC) 153 % of control | dose: 9.0 mg/kg/injection, schedule: Q04DX003 (ip), vehicle: Klucel (hydroxypropylcellulose) (HPC) 169 % of control | dose: 9.5 mg/kg/injection, schedule: Q04DX003 (ip), vehicle: Klucel (hydroxypropylcellulose) (HPC) 154 % of control | dose: 12.0 mg/kg/injection, schedule: Q04DX003 (ip), vehicle: Klucel (hydroxypropylcellulose) (HPC) 209 % of control | dose: 12.5 mg/kg/injection, schedule: Q01DX009 (ip), vehicle: Klucel (hydroxypropylcellulose) (HPC) 230 % of control | dose: 14.5 mg/kg/injection, schedule: Q04DX003 (ip), vehicle: Klucel (hydroxypropylcellulose) (HPC) 166 % of control | dose: 22.0 mg/kg/injection, schedule: Q04DX003 (ip), vehicle: Klucel (hydroxypropylcellulose) (HPC) 166 % of control | dose: 25.0 mg/kg/injection, schedule: Q01DX009 (ip), vehicle: Klucel (hydroxypropylcellulose) (HPC) 230 % of control | [17] 272 % of control | dose: 33.0 mg/kg/injection, schedule: Q04DX003 (ip), vehicle: Klucel (hydroxypropylcellulose) (HPC) 250 % of control and 212 % of control | [18] 250 % of control and 181 % of control
inactive: dose: 75.0 mg/kg/injection, schedule: Q04DX003 (ip), vehicle: Klucel (hydroxypropylcellulose) (HPC) 91 % of control

CCN(CC)Cc1c(C)[nH]c2c(OC)cccc2c1=O
inactive: dose: 6.25 mg/kg/injection, schedule: Q01DX009 (ip), vehicle: water 97 % of control | dose: 6.25 mg/kg/injection, schedule: Q04DX003 (ip), vehicle: water 98 % of control | [5] 99 % of control | dose: 12.5 mg/kg/injection, schedule: Q04DX003 (ip), vehicle: water 91 % of control | [6] 106 % of control | [7] 105 % of control | [8] 97 % of control | [9] 100 % of control | [10] 108 % of control | dose: 100.0 mg/kg/injection, schedule: Q04DX003 (ip), vehicle: water 105 % of control

CCc1ccc2[nH]nc(CCC(=O)O)c(=O)c2c1
inactive: dose: 50.0 mg/kg/injection, schedule: Q01DX009 (ip), vehicle: saline with Tween-80 117 % of control | dose: 100.0 mg/kg/injection, schedule: Q01DX009 (ip), vehicle: saline with Tween-80 108 % of control | dose: 200.0 mg/kg/injection, schedule: Q01DX009 (ip), vehicle: saline with Tween-80 92 % of control

O=C1C=C(SCCO)C(=O)c2ccccc21
inactive: dose: 0.37 mg/kg/injection, schedule: Q04DX003 (ip), vehicle: saline 100 % of control | dose: 0.75 mg/kg/injection, schedule: Q04DX003 (ip), vehicle: saline 104 % of control | dose: 1.5 mg/kg/injection, schedule: Q04DX003 (ip), vehicle: saline 109 % of control

O=C(O)CN(Cc1ccccc1)Sc1ccccc1[N+](=O)[O-]
inactive: dose: 25.0 mg/kg/injection, schedule: Q04DX003 (ip), vehicle: other 105 % of control | dose: 50.0 mg/kg/injection, schedule: Q04DX003 (ip), vehicle: other 117 % of control | dose: 200.0 mg/kg/injection, schedule: Q04DX003 (ip), vehicle: other 117 % of control

CCOC(=S)SCc1nc2ccccc2[nH]1
inactive: [4] 90 % of control | [11] 107 % of control | dose: 400.0 mg/kg/injection, schedule: Q04DX003 (ip), vehicle: saline 105 % of control

N#CCOC(=O)C1(NC(=O)c2ccccc2)CC1c1ccccc1 (centres undefined)
inactive: dose: 25.0 mg/kg/injection, schedule: Q01DX005 (ip), vehicle: saline with Tween-80 95 % of control | dose: 50.0 mg/kg/injection, schedule: Q01DX005 (ip), vehicle: saline with Tween-80 90 % of control | dose: 100.0 mg/kg/injection, schedule: Q01DX005 (ip), vehicle: saline with Tween-80 92 % of control

CCCNc1ncnc2c1cnn2C
inactive: dose: 12.5 mg/kg/injection, schedule: Q01DX009 (ip), vehicle: saline 88 % of control | [1] 112 % of control | [2] 108 % of control | [4] 120 % of control | [11] 120 % of control
